Tests used:
[1] = Methane production in growing lambs, respiration calorimetry (Example 4); format: in vivo; settings: 75 ppm in diet, 3 days treated feed, versus negative control
Excerpt: Animal Test: The object of this test is to determine the effect of the test compound on methane production in growing animals (ruminants). A decrease in methane production is an indication of increased utilization of the animals' feed supply, and possibly an indication of the effectiveness of the compound as a growth promoter.
Test Procedure: The test animals are housed in special respiration calorimetry facilities during the tests so that all metabolic gases can be collected and measured.
Twelve wether lambs, weighing between 20 and 25 kg, were selected from a group of lambs purchased from the California Livestock Marketing Association. The animals were processed according to standard procedures after arrival, and they were ear tagged for identification purposes and weighed prior to being moved to the respiration calorimetry facility.
Experimental Design - The animals were fed 500 grams of a 30% concentrate diet (Table 4) twice daily.
The Formula IV compound was tested in three animals at a level of 75 ppm. The test period was one week. […] Methane production was monitored during this time. […]
Sample Collection and Analysis - Since only the gas data on methane was of interest, urine and feces were collected daily and discarded. […] These samples were analyzed by gas chromatography to get a qualitative measure of […] production. […]

rumen microflora = assay: Batch culture assay for the degradation of starch (Example 3); format: cell-based, steers
Excerpt: The subject Formula ^IV compound was also compared to monensin in another rumen fluid batch culture test as set forth below. The test was designed to screen compounds for inhibition of starch breakdown by the rumen microflora. […] It is considered more desirable to avoid degradation of starch in the rumen so that it is passed on into the abomasum where it can be digested more efficiently. […] Test Procedure: Animals - Mature fistulated steers were maintained on concentrate, roughage, or concentrate/ roughage (50/50) rations. Animals were fed twice daily at 8:00 A.M. and 4:00 P.M.
Culture Assays - Approximately two liters of rumen fluid were collected from fistulated animals with the use of a hand pump. The rumen fluid, collected in a stoppered flask, was then immediately taken to the laboratory for processing. Samples were taken at 8:00 A.M. just prior to the first feeding or at 1:00 P.M. (ca. 4-5 hours after the first feeding). Rumen fluid was strained through six layers of cotton gauze cloth into a flask that was flushed with C02 gas. The filtrate was centrifuged for 5 minutes at 100 rpm in a Sorvall centrifuge to remove large particulate material. The supernatant was again passed through six layers of gauze into a flask under C02 gas and stoppered.
Batch Culture Assay for the Degradation of Starch - Twenty-five ml of rumen fluid prepared as above was added to serum vials (Wheaton Glass, 100 ml capacity) containing 0.25-1.00% final concentration starch as an energy substrate in 25 ml batch culture assay buffer. The serum vials were sealed under C02 gas phase, and incubations were carried out for 20-24 hours at 39°C on a New Brunswick rotary shaker (250 rpm). Each experimental vial was done in triplicate. The corn starch used in degradation experiments was previously washed with distilled water several times, filtered through an 8 micron (47 mm) Millipore filter, and dried at 90°C for 24 hours.
At intervals of 0 and 24 hours, the entire contents in vials were centrifuged at 250 rpm for 5 minutes. The supernatants were carefully removed with a pipet and the remaining "starch pellets" resuspended in water and passed through borosilicate glass microfiber prefilters (Millipore AP 20-047-00). Filters were dried in an oven for 24 hours at 90°C, cooled and then weighed. The amount of starch remaining after 24 hours' incubation was compared with the amount present at 0 hours and the per cent of substrate degraded calculated.

Which results are given for “2,2'-(4,5-diphenyl-2H-imidazol-2-ylidene)bispyridine with CuCl2(1/1) [Formula IV Compound]”?
methane production [1]: significant decrease; starch degraded (rumen microflora; 50 ppm, relative to unincubated control rumen fluid batch culture): 28.7%; per cent starch degraded (rumen microflora; 75 ppm, relative to unincubated control): 13.9%

— EP0091090A2, “Bipyridine substituted imidazolidene copper complex and its use in food-producing animals, and bipyridine, 2,2'-(2-imidazolidinylidene) di-copper complex and use in animals” (INTERNATIONAL MINERALS & CHEMICAL CORPORATION, priority 1982, dated 1983)
